# Source: patent US6864068B2, “Antifungal proteins” (Syngenta Limited, priority 1995, dated 2005)
# System: F culmorum
# Test: Specific antifungal activity of Rs-AFP2 isoforms in SMF− and SMF+ media
# Type: cell-based
# Parameters: IC50 SMF− / IC50 SMF+: unit not given here
# Conditions: for RELATIVE SPECIFIC ACTIVITY (%) IN MEDIUM SMF+ / RELATIVE SPECIFIC ACTIVITY (%) IN MEDIUM SMF−: 1/IC50 of mutant divided by that of yRs-AFP2 x 100, 48 hour incubation, preliminary tests; for RELATIVE SPECIFIC ACTIVITY (%) IN MEDIUM SMF+: SMF with 1 mM CaCl2 and 50 mM KCl; for RELATIVE SPECIFIC ACTIVITY (%) IN MEDIUM SMF−: low ionic strength medium; for IC50 SMF+ / IC50 SMF−: 72 hours growth, triplicate; for IC50 SMF+: high salt medium (1 mM CaCl2, 50 mM KCl); for IC50 SMF− / effect of substitution on antifungal activity in SMF−, in words: low salt medium; for effect of substitution on antifungal activity in SMF+, in words / effect of substitution on antifungal activity in SMF−, in words: Table 2 tests; for effect of substitution on antifungal activity in SMF+, in words: high salt medium; for relative specific antifungal activity (1/IC50), FIG. 6, in words: medium SMF+, Rs-AFP2 set at 100
# Procedure: For each isoform, two independent purifications were carried out and the antifungal activity was determined in duplicate using F culmorum as a test fungus in two different media: a low ionic strength medium called SMF-(Terras et al, 1992, J Biol Chem, 267:15301-15309) and the same medium supplemented with 1 mM CaCl2 and 50 mM KCl called SMF+. The presence of salts in the test medium, especially salts with divalent cations, reduces the specific activity of Rs-AFP2. Seed-purified as well as yeast-expressed wild type Rs-AFP2 served as a control in the assays.
# The relative specific activity is expressed as the specific activity of the mutant divided by the specific activity of yRs-AFP2 and multiplied by 100. […] The specific activity was measured in medium SMF−and SMF+.
# Deviations are given as standard error of the mean (sem) based on the triplicate experiments. In SMF−, the medium without added salts, most of the derivatives show no decrease or only a minor decrease in antifungal activity, while in SMF+, the medium with added salts, there is a significant decrease in antifungal activity for several Rs-AFP2 isoforms.
Substance,RELATIVE SPECIFIC ACTIVITY (%) IN MEDIUM SMF+ [%],RELATIVE SPECIFIC ACTIVITY (%) IN MEDIUM SMF− [%],IC50 SMF+,IC50 SMF−,"antifungal activity compared with yRs-AFP2 in high salt (SMF+), in words (Table 1 tests)","antifungal activity compared with yRs-AFP2 in low salt (SMF−), in words (Table 1 tests)","effect of substitution on antifungal activity in SMF+, in words","effect of substitution on antifungal activity in SMF−, in words","relative specific antifungal activity (1/IC50), FIG. 6, in words","antifungal activity compared with yRs-AFP2, in words (Table 1 tests, SMF− and SMF+)"
yRs-AFP2/I26R (QKLCQRPSGTWSGVCGNNNACKNQCRRLEKARHGSCNYVFPAHKCICYFPC; listed as Raphanus sativus),82,76,9.6,7.2,,,,,,
yRs-AFP2/G16M (QKLCQRPSGTWSGVCMNNNACKNQCIRLEKARHGSCNYVFPAHKCICYFPC; listed as Raphanus sativus),114,151,5.0,2.2,not so significantly different in high salt,increased activity in low salt,increased antifungal activity,little effect on the antifungal activity,enhanced activity,
yRs-AFP2/A31W (QKLCQRPSGTWSGVCGNNNACKNQCIRLEKWRHGSCNYVFPAHKCICYFPC; listed as Raphanus sativus),<5,15,>100,30.0,,,,,,
yRs-AFP2/W11S (QKLCQRPSGTSSGVCGNNNACKNQCIRLEKARHGSCNYVFPAHKCICYFPC; listed as Raphanus sativus),,,>100,16.0,,,,,,
"yRs-AFP2/Q5M: yeast-expressed Rs-AFP2 isoform, position 5 glutamine to methionine (QKLCMRPSGTWSGVCGNNNACKNQCIRLEKARHGSCNYVFPAHKCICYFPC; listed as Raphanus sativus)",100,100,5.4,4.1,,,increased antifungal activity,little effect on the antifungal activity,enhanced activity,maintain their antifungal activity
yRs-AFP2/P7-: yeast-expressed Rs-AFP2 isoform with proline deletion at position 7 (QKLCQRSGTWSGVCGNNNACKNQCIRLEKARHGSCNYVFPAHKCICYFPC; listed as Raphanus sativus),17,8,,,,,,,,
yRs-AFP2/F49R (QKLCQRPSGTWSGVCGNNNACKNQCIRLEKARHGSCNYVFPAHKCICYRPC; listed as Raphanus sativus),22,18,23.0,22.0,,,,,,
yRs-AFP2/N37R (QKLCQRPSGTWSGVCGNNNACKNQCIRLEKARHGSCRYVFPAHKCICYFPC; listed as Raphanus sativus),80,100,7.0,2.8,,,,,,
yRs-AFP2/K44Q (QKLCQRPSGTWSGVCGNNNACKNQCIRLEKARHGSCNYVFPAHQCICYFPC; listed as Raphanus sativus),114,100,,,,,,,,
yRs-AFP2/A42R (QKLCQRPSGTWSGVCGNNNACKNQCIRLEKARHGSCNYVFPRHKCICYFPC; listed as Raphanus sativus),26,44,18.0,4.2,,,,,,
yRs-AFP2/S12R (QKLCQRPSGTWRGVCGNNNACKNQCIRLEKARHGSCNYVFPAHKCICYFPC; listed as Raphanus sativus),31,67,20.0,3.5,,,,,,
yRs-AFP2/T10G (QKLCQRPSGGWSGVCGNNNACKNQCIRLEKARHGSCNYVFPAHKCICYFPC; listed as Raphanus sativus),<16,30,>100,11.0,,,,,,
yRs-AFP2/Y38G (QKLCQRPSGTWSGVCGNNNACKNQCIRLEKARHGSCNGVFPAHKCICYFPC; listed as Raphanus sativus),<4,30,>200,42.0,,,,,,
yRs-AFP2/L28R (QKLCQRPSGTWSGVCGNNNACKNQCIRREKARHGSCNYVFPAHKCICYFPC; listed as Raphanus sativus),,39,>100,6.4,,,,,,
yRs-AFP2/H33A (QKLCQRPSGTWSGVCGNNNACKNQCIRLEKARAGSCNYVFPAHKCICYFPC; listed as Raphanus sativus),,,>100,32.0,,,,,,
yRs-AFP2/I46R (QKLCQRPSGTWSGVCGNNNACKNQCIRLEKARHGSCNYVFPAHKCRCYFPC; listed as Raphanus sativus),,22,>40,12.0,,,,,,
yRs-AFP2/F40M (QKLCQRPSGTWSGVCGNNNACKNQCIRLEKARHGSCNYVMPAHKCICYFPC; listed as Raphanus sativus),23,30,54.0,16.0,,,,,,
"yRs-AFP2/P7R: yeast-expressed Rs-AFP2 isoform, P7 replaced by arginine (QKLCQRRSGTWSGVCGNNNACKNQCIRLEKARHGSCNYVFPAHKCICYFPC; listed as Raphanus sativus)",84,33,8.8,6.8,,,,,,
